Columns and labels:
[1] = test system: furosemide-administered dogs; experiment: Duration of action in furosemide-administered dogs; type: in vivo, dog; settings: for blood pressure lowering effect with time: 1 mg, per os
Protocol: (§1) The test dogs were anesthetized with 30 mg/kg of pentobarbital sodium by intravenous injection and the left femoral artery and femoral vein were separated carefully. Silicone catheter, specially prepared and filled with saline treated with heparin(1,000 IU/ml), was cannulated into the blood vessels. After the surgery, the dogs were constrained to measure their blood pressure continuously with Gould 2000 physiograph adapted to a Grass P23 XL pressure transducer; and their heart rates were monitored with ECG/Biotacho amplifier. The dogs were tested at least 2 days after the surgery.
10 mg/kg of furosemide was injected intramuscularly 18 hours(in case of intravenous injection, 2 hours) before the beginning of the test (administration of the test compound) to improve the activity of renin in blood plasma. After the injection of furosemide, neither food nor water was provided. […] The blood pressure and heart rate were measured up to 8 hours after the administration of each test compound.
The compound of Example 8 and the Merck compound were administered orally to the furosemide-administrated dogs as in test 3(i), and blood pressure lowering effect was measured with time.

[2] = test system: renal hypertensive rat; experiment: Blood pressure lowering effect in renal hypertension (renal hypertensive rats, intravenous or oral); type: in vivo, male Sprague-Dawley rats; settings: 3 mg, read-out: Maxium Blood Pressure Lowering Effect(%)
Procedure, shortened: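 Renal hypertension induced in male Sprague-Dawley rats by complete left renal artery ligation at 4 weeks of age; rats with systolic pressure above 180 mmHg at 6–8 days were used. Compounds given i.v. (in 0.05N KOH) or p.o. (Tween 80 suspension); blood pressure and heart rate recorded via carotid catheter up to 24 h, compared with losartan.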

[3] = test system: unanesthetized dogs; experiment: Blood pressure lowering effect in unanesthetized dogs (furosemide treated); type: in vivo, dog; set-up: Maximum blood pressure lowering effect in a dog: unit not given here; settings: oral; for Blood pressure variation with time: dogs, 1.0 mg
Protocol: A number of dogs were fed freely in a feeding room and those weighing 7 to 12 kg in good health were selected regardless of their gender.
as §1
10 mg/kg of furosemide was injected intramuscularly 18 hours(in case of intravenous injection, 2 hours) before the beginning of the test (administration of the test compound) to improve the activity of renin in blood plasma. After the injection of furosemide, neither food nor water was provided. The test compound was suspended in Tween 80 and administered in an amount of 20 mg/kg orally. The blood pressure and heart rate were measured up to 8 hours after the administration of each test compound.
The maximum blood pressure lowering effect of the present compounds and the control compounds were determined in different amounts of administration using the same method as […]

CCCCc1nc2cc(-c3ccccn3)c(C(OC)OC)nc2n1Cc1ccc(-c2ccccc2-c2nnn[nH]2)cc1 [Example 8, 2-butyl-5-dimethoxymethyl-6-(pyridin-2-yl)-3-[2'-(1H-tetrazol-5-yl)-biphenyl-4-ylmethyl]-3H-imidazo[4,5-b]pyridine]
blood pressure lowering effect with time ([1]; 0 min): 0% | blood pressure lowering effect with time ([1]; 10 min): 0% | blood pressure lowering effect with time ([1]; 20 min): -8% | blood pressure lowering effect with time ([1]; 30 min): -16.2% | blood pressure lowering effect with time ([1]; 60 min): -23.8% | blood pressure lowering effect with time ([1]; 90 min): -26.0% | blood pressure lowering effect with time ([1]; 120 min): -30.0% | blood pressure lowering effect with time ([1]; 150 min): -31.7% | blood pressure lowering effect with time ([1]; 180 min): -31.7% | blood pressure lowering effect with time ([1]; 210 min): -31.2% | blood pressure lowering effect with time ([1]; 240 min): -32.7% | blood pressure lowering effect with time ([1]; 270 min): -33.9% | blood pressure lowering effect with time ([1]; 300 min): -34.9% | blood pressure lowering effect with time ([1]; 330 min): -37.0% | blood pressure lowering effect with time ([1]; 360 min): -35.5% | blood pressure lowering effect with time ([1]; 390 min): -36.4% | blood pressure lowering effect with time ([1]; 420 min): -34.9% | blood pressure lowering effect with time ([1]; 450 min): -33.0% | blood pressure lowering effect with time ([1]; 480 min): -33.0% | maximum blood pressure lowering effect lasted up to (after the administration) ([1]; furosemide-administered dogs, oral, as shown in Table 6): up to 8 hours | change in vivo at 3 mg [2]: -50% | Maximum blood pressure lowering effect in a dog ([3]; 0.1 mg/kg): 17 | Maximum blood pressure lowering effect in a dog ([3]; 0.3 mg/kg): 32 | Maximum blood pressure lowering effect in a dog ([3]; 1 mg/kg): 34 | Blood pressure variation with time ([3]; 0.5 hr): -32.7% | Blood pressure variation with time ([3]; 1 hr): -29.9% | Blood pressure variation with time ([3]; 2 hr): -33.0% | Blood pressure variation with time ([3]; 4 hr): -26.8% | Blood pressure variation with time ([3]; 6 hr): -25.0% | Blood pressure variation with time ([3]; 8 hr): -19.7%
